Results taken from patent publication US20100173914A1, “PHARMACEUTICALS, COMPOSITIONS AND METHODS OF MAKING AND USING THE SAME” (priority 2007, published 2010).

Columns and labels:
[1] = molecular target: T1, human adenosine A1 receptors (Homo sapiens, UniProt P30542); assay: Adenosine receptor binding: binding affinities at hA1 receptors ([3H]DPCPX displacement); conditions: displacement of [3H]DPCPX, membranes of CHO-K1 cells transfected with human A1
T1 construct: expressed in transfected cells; host or cells: CHO-K1
T1 sequence (P30542 1-326): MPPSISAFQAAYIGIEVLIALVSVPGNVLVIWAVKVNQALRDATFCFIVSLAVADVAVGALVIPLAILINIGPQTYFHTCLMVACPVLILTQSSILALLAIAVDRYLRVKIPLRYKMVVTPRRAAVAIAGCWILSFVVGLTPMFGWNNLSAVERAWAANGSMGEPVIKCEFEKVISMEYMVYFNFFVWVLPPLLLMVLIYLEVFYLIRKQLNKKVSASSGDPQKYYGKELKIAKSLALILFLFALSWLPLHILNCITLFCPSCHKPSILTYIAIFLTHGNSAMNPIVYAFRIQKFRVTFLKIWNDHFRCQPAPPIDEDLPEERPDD
Description: Adenosine Receptor Binding: Binding Affinities at hA1 Receptors
The compounds were examined in an assay measuring in vitro binding to human adenosine A1 receptors by determining the displacement of the adenosine A1 receptor selective radioligand 8-Cyclopentyl-1,3-dipropylxanthine ([^3H]DPCPX) using standard techniques. See, for example, Lohse M J, et al., (1987), 8-Cyclopentyl-1,3-dipropylxanthine (DPCPX)—a selective high affinity antagonist radioligand for A1 adenosine receptors. Naunyn Schmiedebergs Arch Pharmacol., 336(2):204-10, which is incorporated by reference in its entirety.
Frozen CHO-K1 cells (transfected with a human adenosine A1 recepter expression vector) were homogenized in 130 mL of 50 mM Tris HCl buffer (pH 7.5) containing 10 mM MgCl2, and 0.1 IU/mL adenosine deaminase per pellet using a Ultra-Turrax homogeniser. The resultant homogenate was kept for immediate use in the binding. Binding assays were performed in a total volume of 250 μL, containing [^3H]-DPCPX (3.0 nM), membranes and additional drugs. Total binding was determined using drug dilution buffer (50 mM Tris-HCl pH:7.5, 10 mM MgCl2, 5% DMSO). Non-specific binding was determined using 300 μM N6-cyclohexyladenosine (CHA). Following incubation for 90 minutes at 21° C., assays were terminated by rapid filtration with GF/B filters (presoaked in 0.1% (w/v) polyethylenimine) using a Canberra Packard filtermate 196, washed 3 times with ice-cold Tris-HCl (pH 7.4). Filters were left to dry overnight, and Microscint-0 scintillation fluid was then added to the filters. The filters were then left for at least 2 hours before the radioactivity was assessed using a Canberra Packard TopCount microplate scintillation counter.
To determine the free ligand concentration, three vials were counted with 25 μL of [^3H]DPCPX containing 4 mL of Ultima-Gold MV scintillant on a Beckman LS6500 multi-purpose scintillation counter.
(§1) Data was analysed using a 4 parameter logistical equation and non-linear regression which yields affinity constants (pIC50), and slope parameters:
where E is the quantity of binding and [A] is the competitor concentration. The K, is then determined using the Cheng-Prusoff equation: […]

[2] = molecular target: T2, human adenosine A2A receptors (Homo sapiens, UniProt P29274); assay: Adenosine receptor binding: binding affinities at hA2A receptors ([3H]CGS-21680 displacement); conditions: for Ki: displacement of [3H]CGS-21680, HEK-293 cell membranes; for A2A/A1 selectivity ratio (Ki A2A/Ki A1): ratio of measured Ki values at hA2A and hA1
T2 construct: host or cells: HEK-293
T2 sequence (P29274 whole entry): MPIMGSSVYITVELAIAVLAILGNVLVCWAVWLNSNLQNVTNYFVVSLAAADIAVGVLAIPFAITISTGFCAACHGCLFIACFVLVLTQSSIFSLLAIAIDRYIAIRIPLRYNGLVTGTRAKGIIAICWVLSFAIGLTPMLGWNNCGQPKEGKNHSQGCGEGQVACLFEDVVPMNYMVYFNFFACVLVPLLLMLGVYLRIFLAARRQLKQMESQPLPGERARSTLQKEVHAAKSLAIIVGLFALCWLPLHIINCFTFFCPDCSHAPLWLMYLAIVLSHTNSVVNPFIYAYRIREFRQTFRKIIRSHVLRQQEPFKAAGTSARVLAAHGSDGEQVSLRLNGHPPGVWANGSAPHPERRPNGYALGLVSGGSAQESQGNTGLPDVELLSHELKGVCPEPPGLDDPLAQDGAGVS
Description: Adenosine Receptor Binding: Binding Affinities at hA2A Receptors
The compounds were examined in an assay measuring in vitro binding to human adenosine A2A receptors by determining the displacement of the adenosine A2A receptor selective radioligand 4-[2-[[6-Amino-9-(N-ethyl-β-D-ribofuranuronamidosyl)-9H-purin-2-yl]amino]ethyl]benzenepropanoic acid hydrochloride ([^3H]CGS-21680) using standard techniques. See, for example, Jarvis et al., J Pharmacol Exp Ther., 251(3):888-93, which is incorporated by reference in its entirety.
Frozen HEK-293 cells were homogenized in 65 mL of 50 mM Tris HCl buffer (pH 7.5) containing 10 mM MgCl2, and 0.1 IU/mL adenosine deaminase per pellet using a Ultra-Turrax homogenizer. The resultant homogenate was kept for immediate use in the binding assay.
Binding assays were performed in a total volume of 250 μL, containing [^3H]-CGS21680 (20.0 nM), membranes and additional drugs. Total binding was determined using drug dilution buffer (50 mM Tris-HCl pH 7.5, 10 mM MgCl2, 5% DMSO). Non-specific binding was determined using 300 μM CHA. Following incubation for 90 minutes at 21° C., assays were terminated by rapid filtration with GF/B filters (presoaked in 0.1% (w/v) polyethylenimine) using a Canberra Packard filtermate 196, washed 3 times with ice-cold Tris-HCl (pH 7.4). Filters were left to dry overnight, and Microscint-0 scintillation fluid was then added to the filters. The filters were then left for at least 2 hours before the radioactivity was assessed using a Canberra Packard TopCount microplate scintillation counter.
To determine the free ligand concentration, three vials were counted with 25 μL of [^3H]CGS21680 containing 4 mL of Ultima-Gold MV scintillant on a Beckman LS6500 multi-purpose scintillation counter.
as §1
where E is the quantity of binding and [A] is the competitor concentration. The Ki is then determined using the Cheng-Prusoff equation: […]

[3] = cited from earlier work
[4] = cited from earlier work; remark: listed apart in the source

| SMILES | Ki [1] | Ki [2] | A2A/A1 selectivity ratio (Ki A2A/Ki A1) [2] | also measured |
| --- | --- | --- | --- | --- |
| Nc1nc(-c2cccs2)c2nnn(Cc3ccc(NS(=O)(=O)O)cc3)c2n1 [4-[(5-amino-7-(thiophen-2-yl)-3H-[1,2,3]triazolo[4,5-d]pyrimidin-3-yl)methyl]phenylsulfamic acid] | 1000 to 10000 nM | 100 to 1000 nM | G (10 to 20) |  |
| COc1cc(Cn2nnc3c(-c4ccccc4)nc(N)nc32)ccc1NS(=O)(=O)O [4-[(5-amino-7-phenyl-3H-[1,2,3]triazolo[4,5-d]pyrimidin-3-yl)methyl]-2-methoxyphenylsulfamic acid] | 1000 to 10000 nM | 100 to 1000 nM | G (10 to 20) |  |
| Cc1cc(Cn2nnc3c(-c4ccccc4)nc(N)nc32)ccc1NS(=O)(=O)O [4-[(5-amino-7-phenyl-3H-[1,2,3]triazolo[4,5-d]pyrimidin-3-yl)methyl]-2-methylphenylsulfamic acid] | 100 to 1000 nM | ≤ 100 nM | H (more than 20) |  |
| COc1cc(NS(=O)(=O)O)ccc1Cn1nnc2c(-c3ccccc3)nc(N)nc21 [4-[(5-amino-7-phenyl-3H-[1,2,3]triazolo[4,5-d]pyrimidin-3-yl)methyl]-3-methoxyphenylsulfamic acid] | > 10000 nM | 1000 to 10000 nM | F (5 to 10) |  |
| COc1ccccc1-c1nc(N)nc2c1nnn2Cc1ccc(C)c(NS(=O)(=O)O)c1 [5-[(5-amino-7-(2-methoxyphenyl)-3H-[1,2,3]triazolo[4,5-d]pyrimidin-3-yl)methyl]-2-methylphenylsulfamic acid] | 1000 to 10000 nM | 1000 to 10000 nM | E (less than 5) |  |
| CCCn1c(=O)c2c(nc(/C=C/c3ccc(OC)c(OC)c3)n2C)n(CCC)c1=O [KF 17837, E-8-(3,4-dimethoxystyryl)-1,3-dipropyl-7-methylxanthine] |  |  |  | anticataleptic effects of a subthreshold dose of L-DOPA plus benserazide ([3]; in vivo): potentiated; catalepsy induced by haloperidol and reserpine ([3]; in vivo): reduced; cataleptic responses induced by intracerebroventricular CGS 21680 ([3]; oral administration): significantly ameliorated |
| Cn1c(=O)c2[nH]cnc2n(C)c1=O [Theophylline, 1,3-dimethylxanthine] |  |  |  | serum theophylline levels ([4]; 150 mg/day slow release oral, after one week, Parkinsonian patients): 4.44 mg/L; mean objective disability scores ([4]; 15 Parkinsonian patients, up to 12 weeks, 150 mg/day): significant improvements; patients reporting moderate or marked subjective improvement ([4]; of 15 Parkinsonian patients, up to 12 weeks, 150 mg/day): 11 |

More lines, main results first:

| Ki [1] | Ki [2] | A2A/A1 selectivity ratio (Ki A2A/Ki A1) [2] | SMILES | also measured |
| --- | --- | --- | --- | --- |
| 100 to 1000 nM | ≤ 100 nM | H (more than 20) | Cc1ccc(-c2nc(N)nc3c2nnn3Cc2ccc(C)c(NS(=O)(=O)O)c2)o1 [5-[(5-amino-7-(5-methylfuran-2-yl)-3H-[1,2,3]triazolo[4,5-d]pyrimidin-3-yl)methyl]-2-methylphenylsulfamic acid] |  |
| 100 to 1000 nM | ≤ 100 nM | H (more than 20) | Cc1ccc(Cn2nnc3c(-c4ccco4)nc(N)nc32)cc1NS(=O)(=O)O [5-[(5-amino-7-(furan-2-yl)-3H-[1,2,3]triazolo[4,5-d]pyrimidin-3-yl)methyl]-2-methylphenylsulfamic acid] |  |
| 1000 to 10000 nM | ≤ 100 nM | H (more than 20) | Cc1ccc(Cn2nnc3c(-c4cccs4)nc(N)nc32)cc1NS(=O)(=O)O [5-[(5-amino-7-(thiophen-2-yl)-3H-[1,2,3]triazolo[4,5-d]pyrimidin-3-yl)methyl]-2-methylphenylsulfamic acid] |  |
| 100 to 1000 nM | ≤ 100 nM | G (10 to 20) | Cc1ccc(Cn2nnc3c(-c4ccccc4)nc(N)nc32)cc1NS(=O)(=O)O [5-[(5-amino-7-phenyl-3H-[1,2,3,]triazolo[4,5-d]pyrimidin-3-yl)methyl]-2-methylphenylsulfamic acid] |  |
